Results on 17 compounds are retold here after patent publication US11292788B2, “IL-17 and IFN-gamma inhibition for the treatment of autoimmune diseases and chronic inflammation” (Immunic AG, priority 2017, dated 2022).

Converted amounts (≈) assume the structure as drawn. Like-named read-outs stand apart in the source and are kept apart here.

Data set [1] can be described thus: Microsomal stability: incubation with human liver microsomes, residual parent compound by HPLC-MS/MS. In kind it is in vitro ADME. Particulars: up to 60 min, read-out: t1/2 hLM. The method in brief: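 Compound at 1 μM final with 0.5 mg/ml pooled human liver microsomes and NADPH regenerating system, 0.1 M potassium phosphate pH 7.4, 0.4% DMSO, 37° C, sampled up to 60 min. Residual parent measured by HPLC-MS/MS; half-life and clearance from slope of remaining % of T0.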

Data set [2] can be described thus: Aqueous solubility in 50 mM phosphate buffer (HPLC/DAD). Particulars: 50 mM phosphate buffer, 23 °C, pH 7.4, aqueous buffer, kinetic from dmso stock, aqueous solubility class; read-out: aq. solub. The format is physicochemical. On the procedure:
To achieve this, the samples (final volume 500 μl, 200 μM compound concentration) were incubated for 24 hours at 23° C. under continuous shaking at 1400 rpm (Thermomixer, Eppendorf) in aqueous phosphate buffers (pH 4.0, 6.0, 7.4 and 9.0) with a final DMSO concentration of 1%. To separate the undissolved compound from the solution, the samples were centrifuged (30 min 18000 g at 23° C.). Supernatants were measured via HPLC equipped with a UV detector and concentrations were calculated according to signals of a standard curve. The standard curve was prepared by diluting a stock solution of each compound (c=0.1 mg/ml; received by adding 10 μl of 20 mM compound in DMSO to 914 μl MeCN) in a certain amount of MeCN to cover a range of 0.1 to 200 μg/ml.

Data set [3] concerns IL-17F. The experiment in a line: Cytokine assay: IL-17F production by human PBMC stimulated with PHA. The format is cell-based. To be noted: Homo sapiens, PBMC, IC50 class, read-out: IL-17F Inhib. The method in brief: (§1)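 Healthy-donor PBMC, isolated on Histopaque-1077, were seeded at 1×10^5 cells/well in RPMI1640 with 10% dialyzed heat-inactivated FCS, activated with 2 μg/ml PHA and incubated with compound for 48 hours. Supernatant cytokine was measured by Luminex BioPlex or ELISA. IC50 came from semilogarithmic titration; screening used 10, 1, 0.1 and 0.01 μM.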

Data set [4] relates to INF-γ. The experiment in a line: Cytokine assay: INF-γ production by human PBMC stimulated with PHA. To be noted: Homo sapiens, PBMC, IC50 class, read-out: IFN-gamma Inhib. The format is cell-based. The method in brief:
as §1

In data set [5] the test system is IL-17A. The experiment in a line: Cytokine assay: IL-17A production by human PBMC stimulated with PHA. In kind it is cell-based. To be noted: IC50 class, read-out: IL-17A Inhib. The procedure, abridged: as §1
The mark [6] stands for this setting: pH 7.4, human liver microsomes, 1 μM compound, 0.5 mg/ml HLM, 37° C.

With `C[C@@H](O)Cn1ncc(-c2onc(-c3c(F)cccc3Cl)c2COC2CCC2)c1C(F)(F)F` [Example 90, (2R)-1-(4-(3-(2-chloro-6-fluorophenyl)-4-(cyclobutoxymethyl)isoxazol-5-yl)-5-(trifluoromethyl)-1H-pyrazol-1-yl)propan-2-ol], the half-life at 1 μM in data set [1] (human liver microsomes 0.5 mg/ml, compound 1 μM, pH 7.4, 37° C.) lay in the range of 0.0333 to 0.167 h. Also, the solubility at 24 h in data set [2] is greater than 10 µM. The IC50 in data set [3] is less than 0.05 µM; in data set [4], less than 0.05 µM; in data set [5] (Homo sapiens, PBMC), less than 0.05 µM.

`Cc1c(-c2onc(-c3ccccc3Cl)c2-c2ncccn2)cnn1[C@H]1C[C@@](C)(O)C1` [Example 99, 3-(4-(3-(2-chlorophenyl)-4-(pyrimidin-2-yl)isoxazol-5-yl)-5-methyl-1H-pyrazol-1-yl)-1-methylcyclobutan-1-ol]: the half-life at 1 μM in data set [1] (setting [6]) is greater than 1.67 h. Moreover, the solubility at 24 h in data set [2] was greater than 10 µM. Also, the IC50 is less than 0.05 µM in data set [3]; less than 0.05 µM in data set [4]; 0.05 to 0.5 µM in data set [5] (Homo sapiens, PBMC).

Regarding `C[C@]1(O)C[C@@H](n2ncc(-c3onc(-c4ccccc4Cl)c3-c3cnccn3)c2C(F)(F)F)C1` [Example 101, 3-{4-[3-(2-chlorophenyl)-4-(pyrazin-2-yl)-1,2-oxazol-5-yl]-5-(trifluoromethyl)-1H-pyrazol-1-yl}-1-methylcyclobutan-1-ol], in data set [1] (setting [6]), the half-life at 1 μM was greater than 1.67 h. Besides, the solubility at 24 h in data set [2] lay within 1 to 2.99 µM (≈ 0.476 to 1.42 µg/mL). In addition, the IC50 was no less than 5 µM in data set [3]; no less than 5 µM in data set [4]; 0.5 to 5 µM in data set [5] (Homo sapiens, PBMC).

Turning to `C[C@]1(O)C[C@@H](n2ncc(-c3onc(-c4ccccc4Cl)c3-c3ncccn3)c2C(F)(F)F)C1` [Example 102, 3-{4-[3-(2-chlorophenyl)-4-(pyrimidin-2-yl)-1,2-oxazol-5-yl]-5-(trifluoromethyl)-1H-pyrazol-1-yl}-1-methylcyclobutan-1-ol], the half-life at 1 μM in data set [1] (setting [6]) is greater than 1.67 h. Besides, the solubility at 24 h in data set [2] is greater than 10 µM. In addition, the IC50 in data set [3] is less than 0.05 µM; in data set [4], less than 0.05 µM; in data set [5] (Homo sapiens, PBMC) it was less than 0.05 µM.

On to `C[C@]1(O)C[C@@H](n2ncc(-c3onc(-c4c(F)cccc4Cl)c3-c3ccncn3)c2C(F)(F)F)C1` [Example 104, 3-{4-[3-(2-chloro-6-fluorophenyl)-4-(pyrimidin-4-yl)-1,2-oxazol-5-yl]-5-(trifluoromethyl)-1H-pyrazol-1-yl}-1-methylcyclobutan-1-ol], for which the half-life at 1 μM in data set [1] (setting [6]) was greater than 1.67 h. In addition, in data set [2], the solubility at 24 h is 1 to 2.99 µM (≈ 0.494 to 1.48 µg/mL). Moreover, the IC50 in data set [3], in data set [4] and in data set [5] was less than 0.05 µM throughout.

On to `C[C@]1(O)C[C@@H](n2ncc(-c3onc(-c4ccccc4Cl)c3-c3ccncn3)c2C(F)(F)F)C1` [Example 106, 3-{4-[3-(2-chlorophenyl)-4-(pyrimidin-4-yl)-1,2-oxazol-5-yl]-5-(trifluoromethyl)-1H-pyrazol-1-yl}-1-methylcyclobutan-1-ol], for which the half-life at 1 μM in data set [1] (setting [6]) is greater than 1.67 h. The solubility at 24 h in data set [2] is greater than 10 µM. For the same compound, the IC50 is less than 0.05 µM in data set [3]; less than 0.05 µM in data set [4]; less than 0.05 µM in data set [5] (Homo sapiens, PBMC).

Turning to `Cc1c(-c2onc(-c3c(F)cccc3Cl)c2-c2cnccn2)cnn1[C@H]1C[C@@](C)(O)C1` [Example 110, 3-{4-[3-(2-chloro-6-fluorophenyl)-4-(pyrazin-2-yl)-1,2-oxazol-5-yl]-5-methyl-1H-pyrazol-1-yl}-1-methylcyclobutan-1-ol], the half-life at 1 μM in data set [1] (setting [6]) was greater than 1.67 h. Further, the solubility at 24 h in data set [2] was greater than 10 µM. Further, the IC50 in data set [3] was in the range of 0.05 to 0.5 µM; in data set [4], 0.05 to 0.5 µM; in data set [5] (Homo sapiens, PBMC) it was 0.05 to 0.5 µM.

For the compound `Cc1c(-c2onc(-c3c(F)cccc3Cl)c2-c2ncccn2)cnn1[C@H]1C[C@@](C)(O)C1` [Example 111, 3-{4-[3-(2-chloro-6-fluorophenyl)-4-(pyrimidin-2-yl)-1,2-oxazol-5-yl]-5-methyl-1H-pyrazol-1-yl}-1-methylcyclobutan-1-ol], the half-life at 1 μM in data set [1] (setting [6]) was greater than 1.67 h. Besides, the solubility at 24 h in data set [2] is greater than 10 µM. In addition, the IC50 is less than 0.05 µM in data set [3]; less than 0.05 µM in data set [4]; less than 0.05 µM in data set [5] (Homo sapiens, PBMC).

`COc1cccc(-c2noc(-c3cnn([C@H]4C[C@@](C)(O)C4)c3C)c2-c2ncccn2)c1Cl` [Example 112, 3-{4-[3-(2-chloro-3-methoxyphenyl)-4-(pyrimidin-2-yl)-1,2-oxazol-5-yl]-5-methyl-1H-pyrazol-1-yl}-1-methylcyclobutan-1-ol]: the half-life at 1 μM in data set [1] (setting [6]) is greater than 1.67 h. For the same compound, in data set [2], the solubility at 24 h was greater than 10 µM. In addition, the IC50 in data set [3] was less than 0.05 µM; in data set [4], less than 0.05 µM; in data set [5] (Homo sapiens, PBMC) it was less than 0.05 µM.

For the compound `CC(C)(O)CCn1ncc(-c2onc(-c3c(F)cccc3Cl)c2-c2ncccn2)c1C(F)(F)F` [Example 123, 4-{4-[3-(2-chloro-6-fluorophenyl)-4-(pyrimidin-2-yl)-1,2-oxazol-5-yl]-5-(trifluoromethyl)-1H-pyrazol-1-yl}-2-methylbutan-2-ol], in data set [1] (setting [6]), the half-life at 1 μM is greater than 1.67 h. Further, the solubility at 24 h in data set [2] is greater than 10 µM. The IC50 is less than 0.05 µM in data set [3]; less than 0.05 µM in data set [4]; less than 0.05 µM in data set [5] (Homo sapiens, PBMC).

Consider `Cc1c(-c2onc(-c3ccccc3Cl)c2-c2ncccn2)cnn1CCC(C)(C)O` [Example 126, 4-[4-[3-(2-chlorophenyl)-4-(pyrimidin-2-yl)-1,2-oxazol-5-yl]-5-methyl-1H-pyrazol-1-yl]-2-methylbutan-2-ol], for which the half-life at 1 μM in data set [1] (setting [6]) is greater than 1.67 h. The solubility at 24 h in data set [2] was greater than 10 µM. Moreover, the IC50 is 0.05 to 0.5 µM in data set [3]; 0.05 to 0.5 µM in data set [4]; 0.05 to 0.5 µM in data set [5] (Homo sapiens, PBMC).

On to `CC(C)(O)CCn1ncc(-c2onc(-c3cccc(OCc4ccccc4)c3Cl)c2-c2ncccn2)c1C(F)(F)F` [Example 128, 4-(4-{3-[3-(benzyloxy)-2-chlorophenyl]-4-(pyrimidin-2-yl)-1,2-oxazol-5-yl}-5-(trifluoromethyl)-1H-pyrazol-1-yl)-2-methylbutan-2-ol], for which the half-life at 1 μM in data set [1] (setting [6]) fell in the range of 0.0333 to 0.167 h. The solubility at 24 h in data set [2] is less than 1 µM. Also, the IC50 in data set [3] is less than 0.05 µM; in data set [4], no less than 5 µM; in data set [5] (Homo sapiens, PBMC), less than 0.05 µM.

In the case of `COc1cccc(-c2noc(-c3cnn([C@H]4C[C@@](C)(O)C4)c3C(F)(F)F)c2COC2CC2)c1Cl` [Example 130, 3-(4-(3-(2-chloro-3-methoxyphenyl)-4-(cyclopropoxymethyl)isoxazol-5-yl)-5-(trifluoromethyl)-1H-pyrazol-1-yl)-1-methylcyclobutan-1-ol], in data set [1] (setting [6]), the half-life at 1 μM is 0.667 to 1.67 h. Moreover, the solubility at 24 h in data set [2] fell in the range of 3 to 9.99 µM (≈ 1.49 to 4.97 µg/mL). Also, the IC50 in data set [3] was less than 0.05 µM; in data set [4], less than 0.05 µM; in data set [5] (Homo sapiens, PBMC), less than 0.05 µM.

As for `CCOC(=O)c1c(-c2cccc(OC)c2Cl)noc1-c1cnn([C@H]2C[C@@](C)(O)C2)c1C(F)(F)F` [Example 131, ethyl 3-(2-chloro-3-methoxyphenyl)-5-{1-[3-hydroxy-3-methylcyclobutyl]-5-(trifluoromethyl)-1H-pyrazol-4-yl}-1,2-oxazole-4-carboxylate], the half-life at 1 μM in data set [1] (setting [6]) was greater than 1.67 h. The solubility at 24 h in data set [2] was greater than 10 µM. Also, the IC50 in data set [3] is less than 0.05 µM; in data set [4], less than 0.05 µM; in data set [5] (Homo sapiens, PBMC), less than 0.05 µM.

Turning to `CCOC(=O)c1c(-c2cccc(OC)c2Cl)noc1-c1cnn(CCC(C)(C)O)c1C(F)(F)F` [Example 132, ethyl 3-(2-chloro-3-methoxyphenyl)-5-[1-(3-hydroxy-3-methylbutyl)-5-(trifluoromethyl)-1H-pyrazol-4-yl]-1,2-oxazole-4-carboxylate], the half-life at 1 μM in data set [1] (setting [6]) is 0.667 to 1.67 h. Moreover, the solubility at 24 h in data set [2] fell in the range of 3 to 9.99 µM (≈ 1.51 to 5.01 µg/mL). Besides, the IC50 in data set [3] is less than 0.05 µM; in data set [4] it was less than 0.05 µM; in data set [5] (Homo sapiens, PBMC), less than 0.05 µM.

Take `CCN(CC)CCCOc1cccc(-c2noc(-c3cnn(CCC(C)(C)O)c3C)c2-c2ncccn2)c1Cl` [Example 147, 4-[4-(3-{2-chloro-3-[3-(diethylamino)propoxy]phenyl}-4-(pyrimidin-2-yl)-1,2-oxazol-5-yl)-5-methyl-1H-pyrazol-1-yl]-2-methylbutan-2-ol]: the half-life at 1 μM in data set [1] (setting [6]) was greater than 1.67 h. The solubility at 24 h in data set [2] is greater than 10 µM. Moreover, the IC50 was in the range of 0.5 to 5 µM in data set [3]; 0.05 to 0.5 µM in data set [4]; 0.5 to 5 µM in data set [5] (Homo sapiens, PBMC).

Consider `C[C@@H](O)Cn1ncc(-c2onc(-c3cccc(C(=O)N4CCCC4)c3Cl)c2-c2ccncn2)c1C(F)(F)F` [Example 160, (R)-(2-chloro-3-(5-(1-(2-hydroxypropyl)-5-(trifluoromethyl)-1H-pyrazol-4-yl)-4-(pyrimidin-4-yl)isoxazol-3-yl)phenyl)(pyrrolidin-1-yl)methanone], for which the half-life at 1 μM in data set [1] (setting [6]) is 0.167 to 0.666 h. In data set [2], the solubility at 24 h is greater than 10 µM. The IC50 was less than 0.05 µM in data set [3]; less than 0.05 µM in data set [4]; less than 0.05 µM in data set [5] (Homo sapiens, PBMC).
